From publication PMC8062481, “Crystal structures of an E1–E2–ubiquitin thioester mimetic reveal molecular mechanisms of transthioesterification” (Nature Communications, 2021) come the findings set out here.

Test [1] concerns the target T1, Uba1–Cdc34^A141K–Ub(t) (covalently trapped E1–E2–ubiquitin thioester mimetic) (Saccharomyces cerevisiae, UniProt P22515).
T1 construct: Uba1 11-1024 and Cdc34 1-195 (A141K), N-terminal TEV-cleavable 6xHis, E. coli BL21(DE3); Uba1 C600-Cdc34 C95 disulfide; Ub Gly76 isopeptide-linked to Cdc34 K141; with Ubiquitin-conjugating enzyme E2-34 kDa; Ubiquitin
Nature of the test: X-ray crystallography, […] Å. The conditions noted are these: crystals grown with 1 mM ATP, 5 mM MgCl2 and excess Ub; ATP binding pocket of Uba1 adenylation domain; AMP in seven of eight copies.

Test [2] addresses T2, S. cerevisiae Uba1 residues 11-1024 (S. cerevisiae, UniProt P22515 11-1024, Cys600 disulfide-linked to Cys95 of Cdc34 (in the crystallised complex)).
T2 construct: Uba1 (ubiquitin E1), S. cerevisiae, residues 11-1024; In the structure it is covalently trapped with Cdc34^A141K-Ub(t) through a disulfide between the catalytic cysteines; also called E1; ScUba1; source: E. coli BL21 (DE3) Codon Plus, purified (Ni-NTA, Superdex 200, MonoQ); not shown: His6, N-terminal, cleaved
Nature of the test: crystal structure; covalently trapped Uba1–Cdc34^A141K–Ub(t) complex (Cys600–Cys95 disulfide, A141K–Gly76 isopeptide bond), 100 μM, crystallised with free Ub (200 μM), 1 mM ATP and 5 mM MgCl2 at 18 °C; 3.43 Å; eight copies, four open and four closed. The conditions noted are these: both partners purified.

T2 sequence (P22515 11-1024): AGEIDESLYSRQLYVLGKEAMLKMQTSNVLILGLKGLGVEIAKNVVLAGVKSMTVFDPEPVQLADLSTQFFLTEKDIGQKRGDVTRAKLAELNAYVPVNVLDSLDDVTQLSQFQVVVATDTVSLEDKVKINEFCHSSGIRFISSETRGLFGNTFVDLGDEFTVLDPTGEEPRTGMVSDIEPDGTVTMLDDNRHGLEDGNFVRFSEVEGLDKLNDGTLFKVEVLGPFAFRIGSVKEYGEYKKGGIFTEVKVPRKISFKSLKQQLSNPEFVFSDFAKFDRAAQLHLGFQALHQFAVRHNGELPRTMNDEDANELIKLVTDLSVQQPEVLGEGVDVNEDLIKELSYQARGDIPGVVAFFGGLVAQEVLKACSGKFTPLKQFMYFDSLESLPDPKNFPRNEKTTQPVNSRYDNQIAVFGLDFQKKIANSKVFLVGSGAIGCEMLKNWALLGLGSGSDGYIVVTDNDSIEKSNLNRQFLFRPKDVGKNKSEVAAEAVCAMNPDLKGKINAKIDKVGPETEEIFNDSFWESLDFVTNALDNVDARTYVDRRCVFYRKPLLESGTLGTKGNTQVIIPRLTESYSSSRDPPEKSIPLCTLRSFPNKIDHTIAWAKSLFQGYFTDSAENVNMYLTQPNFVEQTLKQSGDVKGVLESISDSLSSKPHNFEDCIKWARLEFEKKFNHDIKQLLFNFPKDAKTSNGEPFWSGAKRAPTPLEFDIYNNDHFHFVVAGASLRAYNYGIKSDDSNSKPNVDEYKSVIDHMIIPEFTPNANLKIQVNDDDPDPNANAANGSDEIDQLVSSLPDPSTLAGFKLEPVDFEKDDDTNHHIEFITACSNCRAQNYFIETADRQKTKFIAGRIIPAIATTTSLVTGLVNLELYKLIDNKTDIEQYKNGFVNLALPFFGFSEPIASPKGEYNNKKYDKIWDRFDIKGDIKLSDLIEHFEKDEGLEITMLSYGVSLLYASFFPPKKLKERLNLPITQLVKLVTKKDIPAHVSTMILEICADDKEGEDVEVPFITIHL

Turning to `Nc1ncnc2c1ncn2[C@@H]1O[C@H](COP(=O)(O)O)[C@@H](O)[C@H]1O` [AMP], the “X-ray crystallography, 3.43 Å” value in test [1] was “strong electron density into which AMP (but not the β and γ phosphates of ATP)”.

B1: S. cerevisiae Cdc34 residues 1-195 with A141K (Cdc34^A141K) (enzyme, UniProt P14682 1-195, looked up)
chain: MSSRKSTASSLLLRQYRELTDPKKAIPSFHIELEDDSNIFTWNIGVMVLNEDSIYHGGFFKAQMRFPEDFPFSPPQFRFTPAIYHPNVYRDGRLCISILHQSGDPMTDEPDAETWSPVQTVESVLISIVSLLEDPNINSPKNVDAAVDYRKNPEQYKQRVKMEVERSKQDIPKGFIMPTSESAYISQSKLDEPES
modifications: Lys141 (A141K) isopeptide-linked to Gly76 of Ub(t); Cys95 disulfide-linked to Cys600 of Uba1
notes: Cdc34 (ubiquitin E2), S. cerevisiae, residues 1-195 (Cdc34^ΔCT) with A141K; Stands in the structure as the Cdc34^A141K-Ub(t) thioester mimetic cross-linked to Uba1; also called E2; Cdc34^ΔCT A141K; source: E. coli BL21 (DE3) Codon Plus, purified (Ni-NTA, Superdex 75, MonoQ); not shown: His6, N-terminal, cleaved
Regarding B1, the binding result in test [2] is “binds”.
